Peptide text beside a SMILES is read from it.
Experiments:
[1] = test system: Yac cells; experiment: Doubling time of Yac cells after thirty minutes exposure to osmolarity regulating agents; assay type: cell-based, mouse; details: for Doubling Time: after thirty minutes exposure, PBS is the comparator; for effects on cell doubling time: compared to phosphate buffered saline
Description: The effect on cell viability of exposure to a variety of osmolarity regulating agents was determined by measuring the doubling time of Yac cells after the cells were exposed for thirty minutes to a variety of osmolarity regulating agents. Yac cells are a mouse lymphoma tissue culture cell line available from the American Type Culture Collection, Rockville, Maryland, and are described in the European Journal of Immunology 5:112-117 (1975).

[2] = test system: V79 cells; experiment: Growth kinetics of stained V79 cells; assay type: cell-based; details: 10^-5 or 4×10^-5 M dye, versus unstained cells
Description: Cells cyanine dye labelled using the presently invented procedure were analyzed to determine the effect of labelling on cell viability. V79 cells which are available from the American Type Culture Collection, Rockville, Maryland, and are described in Prescott, D. M., Ann. New York Acad. Sci., 397:101-109 (1982), were labelled with a solution containing DiOC14 (3) at a concentration of 10^-5 or 4×10^-5 M and the growth kinetics of the stained cells were compared to unstained cells and an equal mixture of stained and unstained cells. […] Thus, labelling had no effect on cell growth.

[3] = Cyanine dye solubility in osmolarity regulating agents (relative fluorescence intensity, ethanol standard); assay type: physicochemical
Description: (§1) Included within compounds referred to herein as cyanine dyes are compounds of the above structure having one or more substitutions provided such substituted compounds are soluble in cell labelling media for at least as long as needed for labelling and have a sufficiently high membrane partition coefficient to remain associated with labelled cell membranes. […] Solubility in cell labelling media is determined as shown below by dispursing a cyanine dye in the labelling media and, by standard spectrafluorometric techniques, measuring fluorescence intensity over time. Decreasing fluorescence intensity indicates dye precipitation and adherence to vessel walls. Whether the dyes remain associated with cell membranes is determined, for example, using known flow cytometric procedures to monitor fluorescence intensity of red blood cells injected into the donor animal after labelling. Essentially constant fluorescence intensity of the labelled cells after injection establishes stability of the dye in cell membranes.
All measurements of concentration were made after removal of precipitates by centrifugation and dissolving small aliquots of osmolarity regulating agents containing cyanine dyes into ethanol for spectrofluorometric analysis. The dyes used were DiSC14 (5) and DiOC14 (3), and the osmolarity regulating agents were at iso-osmotic concentrations. Reductions in fluorescence intensity from the ethanol solution standard directly correlate with reductions in cyanine dye solubility.

[4] = Stability of DiSC14 (5) solutions in osmolarity regulating agents; assay type: physicochemical
Description: as §1
Additionally, stability of DiSC14 (5) solutions in sugars such as glucose, fructose, ribose, sorbose, sucrose, and xylose, sugar-alcohols such as glycerol, inositol, xylitol, and adonitol, and amino acids such as glycine and arginine was determined.

[5] = Solubility of DiSC14 (5) in iso-osmotic glucose diluted with water or sodium chloride solution; assay type: physicochemical
Description: Further, the solubility of cyanine dyes in a medium containing classical salts and osmolarity regulators in which the dyes are soluble was evaluated. […] Thus, reproducible cell labelling with cyanine dyes can be performed in media containing no more than small amounts of classical salts, such as sodium chloride, potassium chloride, calcium chloride, sodium acetate, potassium acetate, sodium sulfate, sodium iodide, choline chloride, or choline iodide, and preferably is performed in a medium in which no classical salts are used to regulate osmolarity.

[6] = test system: rabbit red cells; experiment: In vivo stability of labelled rabbit red cells after reinfusion
Description: To test in vivo stability of cells cyanine dye labelled according to the presently invented method, rabbit red cells were withdrawn, labelled with DiSC14 (5), and reinfused. Periodically thereafter, blood samples were obtained and analyzed for percent labelled cells and fluorescence intensity of the labelled cells.
In the fifth animal, not more than 20% of the cyanine dye had migrated from the labelled cells after 60 days in the rabbits' circulation.

[7] = in Phosphate Buffered Saline, ethanol = 100
[8] = in iso-osmotic Arginine, ethanol = 100
[9] = in iso-osmotic Choline Chloride, ethanol = 100, ** (DiSC14 (5) value) Artifact due to large crystals that did not pellet
[10] = in iso-osmotic Choline Iodide, ethanol = 100
[11] = in iso-osmotic Fructose, ethanol = 100
[12] = in iso-osmotic Glucose, ethanol = 100
[13] = in iso-osmotic Glycerol, ethanol = 100
[14] = in iso-osmotic Glycine, ethanol = 100
[15] = in iso-osmotic Inositol, ethanol = 100
[16] = in iso-osmotic Lyxose, ethanol = 100
[17] = in iso-osmotic Na2 SO4, ethanol = 100
[18] = in iso-osmotic NaCl, ethanol = 100
[19] = in iso-osmotic NaI, ethanol = 100
[20] = in iso-osmotic Ribose, ethanol = 100
[21] = in iso-osmotic Sorbose, ethanol = 100
[22] = in iso-osmotic Sucrose, ethanol = 100
[23] = in iso-osmotic Xylitol, ethanol = 100
[24] = in iso-osmotic Xylose, ethanol = 100
[25] = rabbit, reinfused labelled red cells

With `O=S(=O)(O)CCCN1CCN(CCO)CC1` [EPPS, N--(2-Hydroxyethyl)piperazine-N'--3-propanesulfonic acid] as the molecule, how does the “Doubling Time” value [1] read?
Its value is 32.2 h.

And the “effects on cell doubling time” value [1]?
The value was “negligible effects on cell doubling time”.

For `O=S(=O)(O)CC(O)CN1CCOCC1` (centres unmarked) [MOPSO, 3-(N--morpholino)-2-hydroxypropane-sulfonic acid], which “Doubling Time” value [1] is on record?
Its value is 178.4 h.

For `N[C@H]1C(O)O[C@H](CO)[C@@H](O)[C@@H]1O` (some centres unmarked) [Glucosamine], which “Doubling Time” value [1] is on record?
The value was 288.4 h.

For `NCC(=O)NCC(=O)O` [Glycylglycine] (H-Gly-Gly-OH), which “Doubling Time” value [1] is on record?
The value was 66.9 h.

Which “Doubling Time” value [1] does the source give for `NCCCS(=O)(=O)O` [3-Amino-1-propanesulfonic acid] here?
The value was 99.6 h.

For `NC(=O)CNCCS(=O)(=O)O` [ACES, 2-[(2-Amino-2-oxoethyl)amino]ethane sulfonic acid], which “Doubling Time” value [1] is on record?
The value was 1038.4 h.

Which results are given for `O=S(=O)(O)CCCNC1CCCCC1` [CAPS, 3-(Cyclohexylamino)-1-propanesulfonic acid]?
Doubling Time [1]: 45.8 h; effects on cell doubling time [1]: negligible effects on cell doubling time

Which “Doubling Time” value [1] does the source give for `OC[C@H]1O[C@@](CO)(O[C@H]2O[C@H](CO)[C@@H](O)[C@H](O)[C@H]2O)[C@@H](O)[C@@H]1O` [Sucrose] here?
The value was 41.0 h.

What about the “effects on cell doubling time” value [1] of the same molecule?
Its value is “negligible effects on cell doubling time”.

For `CCCCCCCCCCCCCCN1C(=CC=Cc2oc3ccccc3[n+]2CCCCCCCCCCCCCC)Oc2ccccc21` [DiOC14 (3)], which “Cell doubling time of labelled cells” value [2] is on record?
Its value is “Cell doubling time was unaffected by cyanine dye labelling”.

What about the “Relative Fluorescence Intensity (CONC)” value ([3]; in Ethanol (standard)) of the same molecule?
Its value is 100.

What about the “Relative Fluorescence Intensity (CONC)” value [3, 7] of the same molecule?
The value was 6.5.

What about the “Relative Fluorescence Intensity (CONC)” value [3, 8] of the same molecule?
Its value is 17.2.

What about the “Relative Fluorescence Intensity (CONC)” value [3, 9] of the same molecule?
Its value is 6.3.

What about the “Relative Fluorescence Intensity (CONC)” value [3, 10] of the same molecule?
Its value is 2.3.

What about the “Relative Fluorescence Intensity (CONC)” value [3, 11] of the same molecule?
Its value is 100.

What about the “Relative Fluorescence Intensity (CONC)” value [3, 12] of the same molecule?
Its value is 100.

And the “Relative Fluorescence Intensity (CONC)” value [3, 13]?
The value was 99.5.

And the “Relative Fluorescence Intensity (CONC)” value [3, 14]?
The value was 93.

What about the “Relative Fluorescence Intensity (CONC)” value [3, 15] of the same molecule?
Its value is 92.

And the “Relative Fluorescence Intensity (CONC)” value [3, 16]?
Its value is 1.8.

And the “Relative Fluorescence Intensity (CONC)” value [3, 17]?
Its value is 1.6.

And the “Relative Fluorescence Intensity (CONC)” value [3, 18]?
Its value is 1.7.

What about the “Relative Fluorescence Intensity (CONC)” value [3, 19] of the same molecule?
Its value is 0.14.

And the “Relative Fluorescence Intensity (CONC)” value [3, 20]?
The value was 100.

And the “Relative Fluorescence Intensity (CONC)” value [3, 21]?
Its value is 100.

What about the “Relative Fluorescence Intensity (CONC)” value [3, 22] of the same molecule?
Its value is 100.

What about the “Relative Fluorescence Intensity (CONC)” value [3, 23] of the same molecule?
The value was 76.4.

And the “Relative Fluorescence Intensity (CONC)” value [3, 24]?
Its value is 19-52.

Which “Doubling Time” value [1] does the source give for `O=S(=O)(O)CC(O)CNC(CO)(CO)CO` (centres unmarked) [TAPSO, 3-[N--tris(hydroxymethyl)methylamino]-2-hydroxypropanesulfonic acid] here?
Its value is 63.6 h.

Which “Doubling Time” value [1] does the source give for `O=C(O)CN(CCO)CCO` [BICINE, N,N--bis(2-hydroxyethyl)glycine] here?
Its value is 57.7 h.

With `O=S(=O)(O)CCNC1CCCCC1` [CHES, 2-(N--cyclohexylamino)ethane sulfonic acid] as the molecule, how does the “Doubling Time” value [1] read?
The value was 51.5 h.

What does the source list for `O=S(=O)(O)CC(O)CN(CCO)CCO` (centres unmarked) [DIPSO, 3-[N--N--bis(2-hydroxyethyl)amino]-2-hydroxypropane-sulfonic acid]?
Doubling Time [1]: 36.7 h; effects on cell doubling time [1]: negligible effects on cell doubling time

With `O=S(=O)(O)CC(O)CN1CCN(CCO)CC1` (centres unmarked) [HEPPSO, N--2-hydroxyethylpiperazine-N'--2-hydroxypropane-sulfonic acid] as the molecule, how does the “Doubling Time” value [1] read?
Its value is 23.4 h.

And the “effects on cell doubling time” value [1]?
Its value is “negligible effects on cell doubling time”.

Which results are given for `CCCCCCCCCCCCCCN1C(=CC=CC=Cc2sc3ccccc3[n+]2CCCCCCCCCCCCCC)Sc2ccccc21` [DiSC14 (5)]?
time for which dye was stable in solution ([4]; in glucose, fructose, ribose, sorbose, sucrose, xylose, glycerol, inositol, xylitol, adonitol, glycine, arginine): at least twenty; amount of cyanine dye in solution at sixty minutes ([4]; in many of the agents, sixty minutes): had not significantly decreased at sixty minutes; Relative Fluorescence Intensity (CONC) ([3]; in Ethanol (standard)): 100; Relative Fluorescence Intensity (CONC) [3, 7]: 2.1; Relative Fluorescence Intensity (CONC) ([3]; in iso-osmotic Adonitol, ethanol = 100): 34; Relative Fluorescence Intensity (CONC) [3, 8]: 17; Relative Fluorescence Intensity (CONC) ([3]; in iso-osmotic CAPS, ethanol = 100): 40; Relative Fluorescence Intensity (CONC) [3, 9]: 11; Relative Fluorescence Intensity (CONC) [3, 10]: 0.16; Relative Fluorescence Intensity (CONC) ([3]; in iso-osmotic DIPSO, ethanol = 100, *** Precipitate in ethanol (data questionable)): 43; Relative Fluorescence Intensity (CONC) ([3]; in iso-osmotic EPPS, ethanol = 100): 18; Relative Fluorescence Intensity (CONC) [3, 11]: 35; Relative Fluorescence Intensity (CONC) [3, 12]: 31; Relative Fluorescence Intensity (CONC) [3, 13]: 39; Relative Fluorescence Intensity (CONC) [3, 14]: 31; Relative Fluorescence Intensity (CONC) ([3]; in iso-osmotic HEPPSO, ethanol = 100): 20; Relative Fluorescence Intensity (CONC) [3, 15]: 42; Relative Fluorescence Intensity (CONC) [3, 16]: 0.12; Relative Fluorescence Intensity (CONC) ([3]; in iso-osmotic Mannitol, ethanol = 100): 29; Relative Fluorescence Intensity (CONC) [3, 17]: 7.4; Relative Fluorescence Intensity (CONC) [3, 18]: 6; Relative Fluorescence Intensity (CONC) [3, 19]: 1.1; Relative Fluorescence Intensity (CONC) [3, 20]: 24; Relative Fluorescence Intensity (CONC) [3, 21]: 40; Relative Fluorescence Intensity (CONC) [3, 22]: 41; Relative Fluorescence Intensity (CONC) ([3]; in iso-osmotic TAPS, ethanol = 100): 18; Relative Fluorescence Intensity (CONC) [3, 23]: 34; Relative Fluorescence Intensity (CONC) [3, 24]: 36; solubility in iso-osmotic glucose solution on dilution with distilled water ([5]; diluted with distilled water): not significantly affected by dilution with distilled water; solubility in iso-osmotic glucose solution on dilution with sodium chloride solution ([5]; dilution with only approximately 20% iso-osmotic sodium chloride solution): reduced significantly; fluorescence intensity of the stained cells ([6]; 60 days after labelling and reinjection, all but one of five rabbits): remained essentially unchanged 60 days after labelling and reinjection; cyanine dye migrated from the labelled cells ([6]; fifth rabbit, after 60 days in circulation): not more than 20%; clearance rate of red blood cells ([6]; rabbit, labelled red cells): did not affect the clearance rate of red blood cells; lifetime of labelled red cells [6, 25]: 52 days; number of circulating labelled red cells over time [6, 25]: decreased linearly as a function of time

For `O=S(=O)(O)CCCNC(CO)(CO)CO` [TAPS, Tris(hydroxymethyl)-methylaminopropane sulfonic acid], which “Doubling Time” value [1] is on record?
The value was 32.7 h.

What about the “effects on cell doubling time” value [1] of the same molecule?
The value was “negligible effects on cell doubling time”.

Which “Doubling Time” value [1] does the source give for `O=C[C@H](O)[C@@H](O)[C@H](O)[C@H](O)CO` [Glucose] here?
The value was 34.5 h.

And the “effects on cell doubling time” value [1]?
The value was “negligible effects on cell doubling time”.
